# Measurements from patent US5866775A, “Glyphosate-tolerant 5-enolpyruvyl-3-phosphoshikimate synthases” (Monsanto Company, priority 1990, dated 1999).
# Molecular target: T1, pMON8252 encoded petunia EPSPS variant, glycine (101) to alanine and alanine (192) to threonine (Petunia hybrida, UniProt P11043, A264T/G173A)
# T1 construct: alanine 192 in the mature petunia EPSP synthase; made in house; host or cells: E. coli SR481 (aroA-)
# Assay: EPSP synthase kinetic constants (appKm PEP, appKi glyphosate)
# Format: biochemical
# Conditions: extract of SR481 cells with pMON8252
# Method: The balance of the #742 preculture (~750 μl) was used to inoculate 2 ml of 2XYT medium containing 50 μg/ml carbenicillin and was shaken overnight at 37° C. to reach saturation. Plasmid DNA was isolated from an aliquot of the saturated culture using an alkaline lysis procedure. The plasmid was designated pMON8252. An aliquot of the pMON8252 plasmid was used to transform the E. coli host SR481 (described above) and reselected on MOPS medium containing 10 mM glyphosate and 50 μg/ml carbenicillin. A single glyphosate resistant colony of pMON8252 was picked off the selection plate and used to inoculate 3 ml of 2XY1 bacterial medium containing 50 μg/ml carbenicillin. The culture was then aerated on a rotating wheel at 37° C. until saturated and then used to inoculate a larger 250 ml culture. The large culture was grown to saturation by continuously shaking it overnight at 37° C. in a water bath. The bacterial cells were lysed and the extracts were assayed for EPSPS activity.
# Specifically, the bacterial cell paste was washed twice with 0.9% saline, suspended in buffer (100 mM Tris-HCl, 5 mM benzamidine HCl) and passed twice through a French Pressure Cell at 1000 psi. The cell extract was separated from the cells by centrifuging at 15,000×gravity for 10 minutes at 5° C. It was desalted using Sephadex G-50 (Pharmacia, Piscataway, N.J.). The desalted extract was assayed for EPSP synthase activity as follows.
# Kinetic constants (appKm PEP and appKi glyphosate) were determined for EPSP synthase as described below. Substrate kinetic parameters were determined at pH 7.9 in 50 mM HEPES (N-[2-hydroxyethyl]piperazine-N'-[2-ethanesulfonic acid]) buffer in the presence of 2 mM S3P and varying amounts of ^14 C-PEP (10 μM-400 μM), for 2.0 minutes at 25° C. Reactions were quenched with 100 mM NaAcetate in ethanol, pH 4.5, centrifuged and analyzed for product EPSP formation by HPLC with flow radioactivity detection. HPLC conditions were 0.35M KPi, pH 6.5, on a Synchropak AX100 column at 1.0 ml/minute.
# T1 sequence (P11043 73-516 G173A/A264T): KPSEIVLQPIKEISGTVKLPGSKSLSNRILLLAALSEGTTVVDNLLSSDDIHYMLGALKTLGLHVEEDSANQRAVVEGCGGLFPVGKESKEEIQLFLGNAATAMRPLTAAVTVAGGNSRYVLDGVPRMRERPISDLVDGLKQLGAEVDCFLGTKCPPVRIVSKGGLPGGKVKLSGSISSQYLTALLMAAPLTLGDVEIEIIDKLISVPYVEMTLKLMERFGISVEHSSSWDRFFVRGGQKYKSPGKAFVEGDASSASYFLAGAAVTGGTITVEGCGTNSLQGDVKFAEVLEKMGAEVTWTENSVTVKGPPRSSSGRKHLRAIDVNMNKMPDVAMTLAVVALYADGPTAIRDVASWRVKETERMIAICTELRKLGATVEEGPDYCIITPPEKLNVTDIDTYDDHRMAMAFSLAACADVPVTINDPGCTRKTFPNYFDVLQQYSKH
structure (smiles),measurement,value
"C=C(OP(=O)(O)O)C(=O)O [PEP, phosphoenolpyruvate]",Km for PEP,54 µM
